Measured values: US20220056019A1, “FARNESOID X RECEPTOR AGONISTS AND USES THEREOF” (Metacrine, Inc., priority 2018, published 2022)

target: T1, hFXR (Homo sapiens, UniProt Q96RI1); experiment: In Vitro FXR Assay (TK): TK-ECRE-luc reporter in transfected CV-1 cells; format: cell-based; details: 18 hrs incubation, luminescence
T1 construct: expressed in transfected cells; host or cells: CV-1 cells
T1 sequence (Q96RI1 1-486): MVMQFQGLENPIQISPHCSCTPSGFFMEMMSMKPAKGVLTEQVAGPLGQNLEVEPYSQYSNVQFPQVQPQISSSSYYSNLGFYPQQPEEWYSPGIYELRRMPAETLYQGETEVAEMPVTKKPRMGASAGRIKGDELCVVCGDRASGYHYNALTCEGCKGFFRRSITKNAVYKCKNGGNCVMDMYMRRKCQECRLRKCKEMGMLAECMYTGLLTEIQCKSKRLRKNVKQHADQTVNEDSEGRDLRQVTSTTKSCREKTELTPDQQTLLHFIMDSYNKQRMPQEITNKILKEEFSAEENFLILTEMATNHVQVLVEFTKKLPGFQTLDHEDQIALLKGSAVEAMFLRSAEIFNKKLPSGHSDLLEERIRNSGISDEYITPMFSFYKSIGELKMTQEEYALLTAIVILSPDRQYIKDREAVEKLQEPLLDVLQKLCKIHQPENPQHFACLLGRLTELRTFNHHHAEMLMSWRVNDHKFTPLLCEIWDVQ
T1 sequence (P19793 1-462 partner): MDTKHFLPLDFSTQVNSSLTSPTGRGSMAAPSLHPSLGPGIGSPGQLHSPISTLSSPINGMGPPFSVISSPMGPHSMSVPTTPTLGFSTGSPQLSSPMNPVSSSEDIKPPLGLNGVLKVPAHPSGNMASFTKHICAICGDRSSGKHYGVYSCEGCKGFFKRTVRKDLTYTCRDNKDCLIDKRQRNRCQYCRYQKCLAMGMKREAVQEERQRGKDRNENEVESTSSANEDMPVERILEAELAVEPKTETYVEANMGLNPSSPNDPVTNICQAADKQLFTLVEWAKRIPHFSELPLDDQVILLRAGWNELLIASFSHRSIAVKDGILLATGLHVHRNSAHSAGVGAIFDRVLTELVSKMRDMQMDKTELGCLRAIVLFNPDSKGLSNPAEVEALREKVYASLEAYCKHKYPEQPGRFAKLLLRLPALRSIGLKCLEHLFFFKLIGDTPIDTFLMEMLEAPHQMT
Summary of the method: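 Luminescence from a TK-ECRE-luc reporter was read after 18 h of compound exposure in CV-1 cells. These cells were grown in charcoal-stripped FBS medium and transiently transfected with hFXR, hRXR and YFP expression plasmids.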

EC50, ≤ 0.05 µM:
COc1ccc(C23CCC(CN(c4cc(-n5cnc(C6CC6)n5)ccn4)C(=O)[C@H]4CC[C@H](OC(=O)N5CC(O)C5)CC4)(CC2)CC3)cc1C [Compound 4.17, 4-((4-(3-Cyclopropyl-1H-t1,2,4-riazol-1-yl)pyridin-2-yl)((4-(4-methoxy-3-methylphenyl)bicyclo [2.2.2]octan-1-yl)methyl)carbamoyl)cyclohexyl 3-hydroxyazetidine-trans-1-carboxylate]
COc1ccc(C23CCC(CN(c4cc(-n5cnc(C(C)C)n5)ccn4)C(=O)[C@H]4CC[C@H](OC(=O)N5CC(O)C5)CC4)(CC2)CC3)cc1C [Compound 4.18, 4-((4-(3-Isopropyl-1H-1,2,4-triazol-1-yl)pyridin-2-yl)((4-(4-methoxy-3-methylphenyl)bicyclo [2.2.2]octan-1-yl)methyl)carbamoyl)cyclohexyl 3-hydroxyazetidine-trans-1-carboxylate]
COc1ccc(C23CCC(CN(c4cc(-c5cnn(C(F)(F)F)c5)ccn4)C(=O)[C@H]4CC[C@H](OC(=O)N5CC(O)C5)CC4)(CC2)CC3)cc1C [Compound 4.19, 4-(((4-(4-Methoxy-3-methylphenyl)bicyclo [2.2.2]octan-1-yl)methyl) (4-(1-(trifluoromethyl)-1H-pyrazol-4-yl)pyridin-2-yl)carbamoyl) cyclohexyl 3-hydroxyazetidine-trans-1-carboxylate]
CCc1ncc(-c2ccnc(N(CC34CCC(c5ccc(OC)c(C)c5)(CC3)CC4)C(=O)[C@H]3CC[C@H](OC(=O)N4CC(O)C4)CC3)c2)s1 [Compound 4.20, 4-((4-(2-Ethylthiazol-5-yl)pyridin-2-yl)((4-(4-methoxy-3-methylphenyl)bicyclo[2.2.2]octan-1-yl)methyl)carbamoyl) cyclohexyl 3-hydroxyazetidine-trans-1-carboxylate]
COc1ccc(C23CCC(CN(c4cc(-c5cnc(C(C)C)s5)ccn4)C(=O)[C@H]4CC[C@H](OC(=O)N5CC(O)C5)CC4)(CC2)CC3)cc1C [Compound 4.21, 4-((4-(2-Isopropylthiazol-5-yl)pyridin-2-yl)((4-(4-methoxy-3-methylphenyl)bicyclo[2.2.2]octan-1-yl)methyl)carbamoyl) cyclohexyl 3-hydroxyazetidine-trans-1-carboxylate]
CCc1nc(-c2ccnc(N(CC34CCC(c5ccc(OC)c(C)c5)(CC3)CC4)C(=O)[C@H]3CC[C@H](OC(=O)N4CC(O)C4)CC3)c2)co1 [Compound 4.22, 4-((4-(2-Ethyloxazol-4-yl)pyridin-2-yl)((4-(4-methoxy-3-methylphenyl)bicyclo[2.2.2]octan-1-yl)methyl)carbamoyl) cyclohexyl 3-hydroxyazetidine-trans-1-carboxylate]
COc1ccc(C23CCC(CN(c4cc(-c5coc(C(C)C)n5)ccn4)C(=O)[C@H]4CC[C@H](OC(=O)N5CC(O)C5)CC4)(CC2)CC3)cc1C [Compound 4.23, 4-((4-(2-Isopropyloxazol-4-yl)pyridin-2-yl)((4-(4-methoxy-3-methylphenyl)bicyclo[2.2.2]octan-1-yl)methyl)carbamoyl) cyclohexyl 3-hydroxyazetidine-trans-1-carboxylate]
COc1ccc(C23CCC(CN(c4cc(-c5cnc(C6CC6)o5)ccn4)C(=O)[C@H]4CC[C@H](OC(=O)N5CC(O)C5)CC4)(CC2)CC3)cc1C [Compound 4.24, 4-((4-(2-Cyclopropyloxazol-5-yl)pyridin-2-yl)((4-(4-methoxy-3-methylphenyl)bicyclo [2.2.2]octan-1-yl)methyl)carbamoyl) cyclohexyl 3-hydroxyazetidine-trans-1-carboxylate]
COc1ccc(C23CCC(CN(c4cc(-c5cnc(C(C)C)o5)ccn4)C(=O)[C@H]4CC[C@H](OC(=O)N5CC(O)C5)CC4)(CC2)CC3)cc1C [Compound 4.25, 4-((4-(2-Isopropyloxazol-5-yl)pyridin-2-yl)((4-(4-methoxy-3-methylphenyl)bicyclo[2.2.2]octan-1-yl)methyl)carbamoyl) cyclohexyl 3-hydroxyazetidine-trans-1-carboxylate]
COc1ccc(C23CCC(CN(c4cc(-c5cc(C6CC6)on5)ccn4)C(=O)[C@H]4CC[C@H](OC(=O)N5CC(O)C5)CC4)(CC2)CC3)cc1C [Compound 4.26, 4-((4-(5-Cyclopropylisoxazol-3-yl)pyridin-2-yl)((4-(4-methoxy-3-methylphenyl)bicyclo[2.2.2]octan-1-yl)methyl)carbamoyl) cyclohexyl 3-hydroxyazetidine-trans-1-carboxylate]
COc1ccc(C23CCC(CN(c4cc(-c5cc(C(C)C)on5)ccn4)C(=O)[C@H]4CC[C@H](OC(=O)N5CC(O)C5)CC4)(CC2)CC3)cc1C [Compound 4.27, 4-((4-(5-Isopropylisoxazol-3-yl)pyridin-2-yl)((4-(4-methoxy-3-methylphenyl)bicyclo[2.2.2]octan-1-yl)methyl)carbamoyl) cyclohexyl 3-hydroxyazetidine-trans-1-carboxylate]
COc1ccc(C23CCC(CN(c4cc(-c5cnc(C6CC6)s5)ccn4)C(=O)[C@H]4CC[C@H](OC(=O)N5CC(CO)C5)CC4)(CC2)CC3)cc1C [Compound 4.28, 4-((4-(2-Cyclopropylthiazol-5-yl)pyridin-2-yl)((4-(4-methoxy-3-methylphenyl)bicyclo[2.2.2]octan-1-yl)methyl)carbamoyl)(trans-cyclohexyl) 3-(hydroxymethyl)azetidine-1-carboxylate]
COc1ccc(C23CCC(CN(c4cc(-c5cnc(C(C)C)s5)ccn4)C(=O)[C@H]4CC[C@H](OC(=O)N5CC(CO)C5)CC4)(CC2)CC3)cc1C [Compound 4.29, 4-((4-(2-Isopropylthiazol-5-yl)pyridin-2-yl)((4-(4-methoxy-3-methylphenyl)bicyclo[2.2.2]octan-1-yl)methyl)carbamoyl)(trans-cyclohexyl) 3-(hydroxymethyl)azetidine-1-carboxylate]
CCc1nc(-c2ccnc(N(CC34CCC(c5ccc(OC)c(C)c5)(CC3)CC4)C(=O)[C@H]3CC[C@H](OC(=O)N4CC(CO)C4)CC3)c2)co1 [Compound 4.30, 4-((4-(2-Ethyloxazol-4-yl)pyridin-2-yl)((4-(4-methoxy-3-methylphenyl)bicyclo[2.2.2]octan-1-yl)methyl)carbamoyl)(trans-cyclohexyl) 3-(hydroxymethyl)azetidine-1-carboxylate]
COc1ccc(C23CCC(CN(c4cc(-c5coc(C6CC6)n5)ccn4)C(=O)[C@H]4CC[C@H](OC(=O)N5CC(CO)C5)CC4)(CC2)CC3)cc1C [Compound 4.31, 4-((4-(2-Cyclopropyloxazol-4-yl)pyridin-2-yl)((4-(4-methoxy-3-methylphenyl)bicyclo[2.2.2]octan-1-yl)methyl)carbamoyl)(trans-cyclohexyl) 3-(hydroxymethyl)azetidine-1-carboxylate]
COc1ccc(C23CCC(CN(c4cccc(-c5nnc(C6CC6)o5)c4)C(=O)[C@H]4CC[C@H](OC(=O)N5CC(O)C5)CC4)(CC2)CC3)cc1C [Compound 4.32, 4-((3-(5-Cyclopropyl-1,3,4-oxadiazol-2-yl)phenyl)((4-(4-methoxy-3-methylphenyl)bicyclo [2.2.2]octan-1-yl)methyl)carbamoyl)cyclohexyl trans-3-hydroxyazetidine-1-carboxylate]
COc1ccc(C23CCC(CN(c4cc(-c5cnc(C(C)C)s5)ccn4)C(=O)[C@H]4CC[C@H](OC(=O)NCCCO)CC4)(CC2)CC3)cc1C [Compound 4.33, 4-((4-(2-Isopropylthiazol-5-yl)pyridin-2-yl)((4-(4-methoxy-3-methylphenyl)bicyclo[2.2.2]octan-1-yl)methyl)carbamoyl)(trans-cyclohexyl) (3-hydroxypropyl)carbamate]
COc1ccc(C23CCC(CN(c4cc(-c5cnc(C(C)C)s5)ccn4)C(=O)[C@H]4CC[C@H](OC(=O)N5CC(S(C)(=O)=O)C5)CC4)(CC2)CC3)cc1C [Compound 4.34, 4-((4-(2-Isopropylthiazol-5-yl)pyridin-2-yl)((4-(4-methoxy-3-methylphenyl)bicyclo[2.2.2]octan-1-yl)methyl)carbamoyl)(trans-cyclohexyl) 3-(methylsulfonyl)azetidine-1-carboxylate]
